Measurements: patent US9073821B2, “Hydroxamic acid derivative” (priority 2010, dated 2015)
≈ marks a conversion by molar mass, not a printed value. Like-named read-outs stand apart in the source and are kept apart here.

Legend:
[1] = system: Pseudomonas aeruginosa strain TS88 (clinical isolate); test: Antimicrobial activity, MIC by broth microdilution; type: cell-based; conditions: Table 4, 35° C., 18 hours, read-out: Pseudomonas aeruginosa TS88 strain MIC
E. coli strain ATCC25922 = test: Antimicrobial activity, MIC by broth microdilution; type: cell-based; conditions: Escherichia coli, Table 4, 35° C., 18 hours, read-out: E. coli ATCC 25922 strain MIC
[2] = system: Klebsiella pneumoniae strain ATCC13883; test: Antimicrobial activity, MIC by broth microdilution; type: cell-based; conditions: Table 4, 35° C., 18 hours, read-out: Klebsiella pneumoniae ATCC 13883 strain MIC
E. coli LpxC enzyme = E. coli LpxC enzyme (Escherichia coli (strain K12), UniProt P0A725); test: Inhibitory activity on E. coli LpxC enzyme (fluorescamine assay); type: biochemical; conditions: Table 4
Experimental: Test 2: Evaluation of the Inhibitory Activity on E. coli LpxC Enzyme
An inhibition curve was constructed for each test compound by performing the aforementioned reaction at varying concentrations of the test compound. From this inhibition curve, the concentration of the test compound at which the formation of the reaction product was suppressed by 50% was determined as the IC50 of the test compound, which was an index for the inhibitory activity on E. coli LpxC enzyme.

[3] = target: Pseudomonas aeruginosa LpxC enzyme (Pseudomonas aeruginosa (strain ATCC 15692 / DSM 22644 / CIP 104116 / JCM 14847 / LMG 12228 / 1C / PRS 101 / PAO1), UniProt P47205); test: biochemical; type: biochemical
[4] = Table 4, read-out: Pseudomonas aeruginosa LpxC IC50
[5] = inhibitory activity on Pseudomonas aeruginosa LpxC enzyme, class symbols A/B/C, read-out: Enzyme inhibitory activity
[6] = class symbols A/B/C by IC50, Table 3, read-out: Enzyme inhibitory activity (inhibitory activity on Pseudomonas aeruginosa LpxC enzyme)

Chain of E. coli LpxC enzyme (P0A725 whole entry): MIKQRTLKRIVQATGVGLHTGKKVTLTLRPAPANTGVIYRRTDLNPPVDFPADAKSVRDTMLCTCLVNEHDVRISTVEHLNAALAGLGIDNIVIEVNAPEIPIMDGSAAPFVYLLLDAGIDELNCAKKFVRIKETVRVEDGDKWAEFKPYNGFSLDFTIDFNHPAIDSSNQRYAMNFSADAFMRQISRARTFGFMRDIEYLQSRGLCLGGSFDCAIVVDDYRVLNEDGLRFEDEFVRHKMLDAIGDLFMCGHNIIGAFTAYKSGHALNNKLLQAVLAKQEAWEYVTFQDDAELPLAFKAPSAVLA

SMILES | MIC [1] [µg/mL] | MIC (E. coli strain ATCC25922) [µg/mL] | MIC [2] [µg/mL] | IC50 (E. coli LpxC enzyme) [nM] | IC50 [3, 4] [nM] | IC50 [3, 5] [nM] | IC50 [3] [nM] | IC50 [3, 6] [nM]
CCOc1ccc(-c2ccc(C(=O)N(C)C(C(=O)NC)C(=O)NO)cc2)cc1 (stereo not drawn) [Compound 211, 2-{[(4′-ethoxybiphenyl-4-yl)carbonyl](methyl)amino}-N-hydroxy-N′-methylpropanediamide] | 0.5 (≈ 1.3 µM) | 1 (≈ 2.59 µM) | 8 (≈ 20.8 µM) | 109 | 3.1 | < 10 | – | –
CNC(=O)C(C(=O)NO)N(C)C(=O)c1ccc(C#Cc2ccc(CNC3CC3)cc2)cc1 (stereo not drawn) [Compound 301, 2-[{[4-({4-[(Cyclopropylamino)methyl]phenyl}ethynyl)phenyl]carbonyl}(methyl)amino]-n-hydroxy-n′-methylpropanediamide] | 1 (≈ 2.3 µM) | 1 (≈ 2.3 µM) | 4 (≈ 9.21 µM) | 100 | 6.1 | < 10 | – | –
CNC(=O)[C@@](C)(C(=O)NO)N(C)C(=O)c1ccc(C#Cc2ccc(CN3CCCOCC3)cc2)cc1 [Compound 376, (2S)-N-hydroxy-N′,2-dimethyl-2-[methyl(4-{[4-(1,4-oxazepan-4-ylmethyl)phenyl]ethynyl}benzoyl)amino]propanediamide] | 0.5 (≈ 1.02 µM) | 0.25 (≈ 0.508 µM) | 1 (≈ 2.03 µM) | 129 | 2 | < 10 | – | –
CNC(=O)[C@@](C)(C(=O)NO)N(C)C(=O)c1ccc(C#Cc2ccc(CNC3COC3)cc2)cc1 [Compound 396, (2S)-N-hydroxy-N′,2-dimethyl-2-(methyl{[4-({4-[(oxetan-3-ylamino)methyl]phenyl}ethynyl)phenyl]carbonyl}amino)propanediamide] | 2 (≈ 4.31 µM) | 0.5 (≈ 1.08 µM) | 2 (≈ 4.31 µM) | 46 | 3.1 | < 10 | – | –
CNC(=O)[C@@](C)(C(=O)NO)N(C)C(=O)c1ccc(CCc2ccc(CN3CCOCC3)cc2)cc1 [Compound 425, (2S)-N-hydroxy-N′,2-dimethyl-2-{methyl[(4-{2-[4-(morpholin-4-ylmethyl)phenyl]ethyl}phenyl)carbonyl]amino}propanediamide] | 8 (≈ 16.6 µM) | 2 (≈ 4.14 µM) | 8 (≈ 16.6 µM) | 121 | 5.1 | < 10 | – | –
CNC(=O)[C@@](C)(C(=O)NO)N(C)C(=O)c1ccc(/C=C/c2ccc(CN3CCOCC3)cc2)cc1 [Compound 434, (2S)-N-hydroxy-N′,2-dimethyl-2-{methyl[(4-{(E)-2-[4-(morpholin-4-ylmethyl)phenyl]ethenyl}phenyl)carbonyl]amino}propanediamide] | 1 (≈ 2.08 µM) | 0.25 (≈ 0.52 µM) | 1 (≈ 2.08 µM) | 55 | 2.8 | < 10 | – | –
CNC(=O)C(C(=O)NO)N(C)C(=O)c1ccc(/C=C/C#Cc2ccc(CNC3CC3)cc2)cc1 (stereo not drawn) [Compound 477, 2-[({4-[(1E)-4-{4-[(cyclopropylamino)methyl]phenyl}but-1-en-3-yn-1-yl]phenyl}carbonyl)(methyl)amino]-N-hydroxy-N′-methylpropanediamide] | 0.5 (≈ 1.09 µM) | 0.25 (≈ 0.543 µM) | 1 (≈ 2.17 µM) | 33 | 4.3 | < 10 | – | –
CNC(=O)C(C(=O)NO)N(C)C(=O)c1ccc(C#C/C=C/c2ccc(CNC3CC3)cc2)cc1 (stereo not drawn) [Compound 481, 2-[({4-[(3E)-4-{4-[(cyclopropylamino)methyl]phenyl}but-3-en-1-yn-1-yl]phenyl}carbonyl)(methyl)amino]-N-hydroxy-N′-methylpropanediamide] | 1 (≈ 2.17 µM) | 0.25 (≈ 0.543 µM) | 2 (≈ 4.34 µM) | 78 | 9.1 | < 10 | – | –
CNC(=O)C(C)(C(=O)NO)N(C)C(=O)c1ccc(C#Cc2coc(COC)c2)cc1 (stereo not drawn) [Compound 528, N-hydroxy-2-{[(4-{[5-(methoxymethyl)furan-3-yl]ethynyl}phenyl)carbonyl](methyl)amino}-N′,2-dimethylpropanediamide] | 0.5 (≈ 1.21 µM) | 0.25 (≈ 0.605 µM) | 2 (≈ 4.84 µM) | 25 | 4.8 | – | < 10 | –
CNC(=O)[C@@](C)(C(=O)NO)N(C)C(=O)c1ccc(C#Cc2coc(COC)c2)cc1 [Compound 550, (2S)-N-hydroxy-2-{[(4-{[5-(methoxymethyl)furan-3-yl]ethynyl}phenyl)carbonyl](methyl)amino}-N′,2-dimethylpropanediamide] | 0.5 (≈ 1.21 µM) | 0.25 (≈ 0.605 µM) | 1 (≈ 2.42 µM) | 12 | 1.6 | – | < 10 | –
CCOC1CN(Cc2ccc(C#Cc3ccc(C(=O)N(C)[C@@](C)(C(=O)NC)C(=O)NO)cc3)cc2)C1 [Compound 557, (2S)-2-[{[4-({4-[(3-ethoxyazetidin-1-yl)methyl]phenyl}ethynyl)phenyl]carbonyl}(methyl)amino]-N-hydroxy-N′,2-dimethylpropanediamide] | 0.5 (≈ 1.02 µM) | 0.25 (≈ 0.508 µM) | 1 (≈ 2.03 µM) | 108 | 2.3 | – | – | < 10
CNC(=O)[C@@](C)(C(=O)NO)N(C)C(=O)c1ccc(C#Cc2coc(CNC3CC3)c2)cc1 [Compound 585, (2S)-2-[{[4-({5-[(cyclopropylamino)methyl]furan-3-yl}ethynyl)phenyl]carbonyl}(methyl)amino]-N-hydroxy-N′,2-dimethylpropanediamide] | 0.5 (≈ 1.14 µM) | 0.5 (≈ 1.14 µM) | 1 (≈ 2.28 µM) | 88 | 3.4 | – | – | < 10
